Biological target: T1, glucosidase II (Homo sapiens, UniProt Q14697)
T1 construct: endogenous in cells; host or cells: HL60 cells
T1 sequence (Q14697 29-944): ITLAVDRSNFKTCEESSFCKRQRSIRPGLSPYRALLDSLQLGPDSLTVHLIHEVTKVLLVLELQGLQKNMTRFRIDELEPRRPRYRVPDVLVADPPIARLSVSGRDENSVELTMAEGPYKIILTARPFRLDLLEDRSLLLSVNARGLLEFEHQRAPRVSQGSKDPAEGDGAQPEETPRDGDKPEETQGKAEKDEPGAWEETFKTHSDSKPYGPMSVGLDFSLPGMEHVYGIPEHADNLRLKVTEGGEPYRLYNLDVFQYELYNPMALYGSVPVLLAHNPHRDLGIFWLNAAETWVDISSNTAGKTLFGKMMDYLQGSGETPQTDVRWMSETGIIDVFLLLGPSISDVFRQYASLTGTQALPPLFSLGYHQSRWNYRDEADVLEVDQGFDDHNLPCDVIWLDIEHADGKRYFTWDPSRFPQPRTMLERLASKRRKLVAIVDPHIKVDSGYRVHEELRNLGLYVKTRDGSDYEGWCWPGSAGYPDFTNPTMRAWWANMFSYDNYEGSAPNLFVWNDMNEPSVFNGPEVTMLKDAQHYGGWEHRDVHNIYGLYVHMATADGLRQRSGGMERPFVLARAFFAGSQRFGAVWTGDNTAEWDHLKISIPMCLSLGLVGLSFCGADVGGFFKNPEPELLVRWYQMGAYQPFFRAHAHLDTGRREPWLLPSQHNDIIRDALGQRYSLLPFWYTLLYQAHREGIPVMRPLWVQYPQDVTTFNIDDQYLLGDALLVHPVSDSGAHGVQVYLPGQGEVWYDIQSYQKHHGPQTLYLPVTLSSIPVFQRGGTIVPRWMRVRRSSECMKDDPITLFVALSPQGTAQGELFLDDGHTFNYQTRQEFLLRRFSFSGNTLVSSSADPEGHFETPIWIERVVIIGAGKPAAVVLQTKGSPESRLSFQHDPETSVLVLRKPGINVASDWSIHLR
T1 sequence (P14314 15-528 partner): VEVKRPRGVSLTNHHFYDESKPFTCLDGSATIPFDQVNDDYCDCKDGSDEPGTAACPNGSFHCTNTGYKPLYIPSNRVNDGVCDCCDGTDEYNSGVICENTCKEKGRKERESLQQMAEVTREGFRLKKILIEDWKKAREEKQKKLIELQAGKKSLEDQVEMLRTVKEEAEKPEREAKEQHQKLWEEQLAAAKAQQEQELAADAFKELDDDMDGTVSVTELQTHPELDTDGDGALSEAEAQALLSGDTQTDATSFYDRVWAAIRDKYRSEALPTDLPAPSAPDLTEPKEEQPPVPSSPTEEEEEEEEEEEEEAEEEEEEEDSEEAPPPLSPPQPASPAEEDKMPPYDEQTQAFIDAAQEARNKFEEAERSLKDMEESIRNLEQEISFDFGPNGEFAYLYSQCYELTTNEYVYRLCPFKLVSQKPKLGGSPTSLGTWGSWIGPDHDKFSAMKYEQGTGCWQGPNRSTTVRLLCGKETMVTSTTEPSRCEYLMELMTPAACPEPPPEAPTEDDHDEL
Assay: Inhibition of glucosidase II in HL60 cells, free oligosaccharide (G1M5N) analysis by NP-HPLC
Assay type: cell-based
Details: 24 h
Experimental: The effect of an ER-glucosidase inhibitor on cells was evaluated using an assay method by modifying known methods. (H. R. Mellor et al., Cellular Effects of Deoxynojirimycin Analogues: Inhibition of N-Linked Oligosaccharide Processing and Generation of Free Glucosylated Oligosaccharides, 381 Biochem. J. 867-875 (2004). The detection of free oligosaccharides following imino sugar treatment to generate misfolded protein that is degraded in the cytosol is an accurate measure of cell ER entry and inhibition of glycoprotein processing of α-glucosidases I and II by imino sugars.
Cells were cultured to high density (×10^7 cells/ml) prior to growth in fresh medium containing NB-DNJ at varying concentrations. The cells were seeded at a lower density so as to achieve a high density at the end of the incubation period. […] The conditions for extraction of FOS were determined to maximize recovery of FOS. […]
ConA-Sepharose purified 2-AA-labeled oligosaccharides were separated by NP-HPLC using a 4.6×250 mm TSKgel Amide-80 column (Anachem, Luton, UK) with slight modifications to known methods. (D. C. Neville, et al.) The chromatography system consisted of a Waters Alliance 2695 separations module and an in-line Waters 474 fluorescence detector set at an excitation wavelength of 360 nm and emission wavelength of 425 nm. […]

concentration at which glucosidase II is inhibited in cells: 1 to 10 µM
SMILES: [N-]=[N+]=Nc1ccc(NCCCCCCN2C[C@H](O)[C@@H](O)[C@H](O)[C@H]2CO)c([N+](=O)[O-])c1 [NAP-DNJ, N—(N′-{4′azido-2′-nitrophenyl)-6-aminohexyl)-deoxynojirimycin]

Source: patent US8975280B2, “Deoxynojirimycin and D-arabinitol analogs and methods of using” (The Chancellor, Masters and Scholars of The University of …, priority 2006, dated 2015)
